Test results as given in publication PMC5078040 (Oncotarget, 2016).

What was measured:
Assay in all cases: KinomeScan
Type in all cases: binding
Settings in all cases: 1uM
[1] = molecular target: T1, ABL1(F317L)-nonphosphorylated (Homo sapiens, UniProt P00519, F317L)
T1 construct: purchased DiscoveRx KINOMEscan

BMPR1B = molecular target: T2, BMPR1B (Homo sapiens, UniProt O00238)
T2 construct: purchased DiscoveRx KINOMEscan

SLK = molecular target: T3, SLK (Homo sapiens, UniProt Q9H2G2)
T3 construct: purchased DiscoveRx KINOMEscan
T3 sequence (Q9H2G2 whole entry): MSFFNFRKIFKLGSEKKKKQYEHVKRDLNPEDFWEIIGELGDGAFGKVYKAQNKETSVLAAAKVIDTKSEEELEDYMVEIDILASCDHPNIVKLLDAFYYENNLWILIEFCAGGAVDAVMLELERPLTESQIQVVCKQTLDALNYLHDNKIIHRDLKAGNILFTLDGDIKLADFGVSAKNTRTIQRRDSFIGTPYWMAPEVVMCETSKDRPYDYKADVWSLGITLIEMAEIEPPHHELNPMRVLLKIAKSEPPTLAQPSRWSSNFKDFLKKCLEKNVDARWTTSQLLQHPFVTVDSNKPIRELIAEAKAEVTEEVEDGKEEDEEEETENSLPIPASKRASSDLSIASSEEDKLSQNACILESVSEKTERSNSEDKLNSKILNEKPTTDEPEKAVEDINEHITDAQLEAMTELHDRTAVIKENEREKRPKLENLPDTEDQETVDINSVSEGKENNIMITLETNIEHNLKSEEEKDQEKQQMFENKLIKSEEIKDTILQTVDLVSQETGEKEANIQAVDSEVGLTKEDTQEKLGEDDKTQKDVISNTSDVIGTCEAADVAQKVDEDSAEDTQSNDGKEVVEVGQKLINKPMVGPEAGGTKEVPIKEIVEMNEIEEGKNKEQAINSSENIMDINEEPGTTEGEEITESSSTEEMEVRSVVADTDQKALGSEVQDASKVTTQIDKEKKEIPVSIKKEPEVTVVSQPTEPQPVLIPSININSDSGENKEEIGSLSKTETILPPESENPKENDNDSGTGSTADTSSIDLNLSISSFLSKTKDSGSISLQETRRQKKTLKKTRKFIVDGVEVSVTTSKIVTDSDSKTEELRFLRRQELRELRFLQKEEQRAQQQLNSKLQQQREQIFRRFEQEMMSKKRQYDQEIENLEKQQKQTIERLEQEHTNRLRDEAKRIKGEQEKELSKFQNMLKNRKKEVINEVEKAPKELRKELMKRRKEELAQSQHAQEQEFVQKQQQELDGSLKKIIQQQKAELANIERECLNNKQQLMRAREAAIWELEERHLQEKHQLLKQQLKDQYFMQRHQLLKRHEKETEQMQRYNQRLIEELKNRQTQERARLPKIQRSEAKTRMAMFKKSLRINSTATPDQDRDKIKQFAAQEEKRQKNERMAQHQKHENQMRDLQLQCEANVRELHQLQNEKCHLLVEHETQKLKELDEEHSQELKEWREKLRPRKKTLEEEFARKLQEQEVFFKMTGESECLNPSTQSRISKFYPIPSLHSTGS

NIM1 = molecular target: T4, NIM1 (Homo sapiens, UniProt Q8IY84)
T4 construct: purchased DiscoveRx KINOMEscan

TRKA = molecular target: T5, TRKA (Homo sapiens, UniProt P04629)
T5 construct: purchased DiscoveRx KINOMEscan

CHEK2 = molecular target: T6, CHEK2 (Homo sapiens, UniProt O96017)
T6 construct: purchased DiscoveRx KINOMEscan

SGK2 = molecular target: T7, SGK2 (Homo sapiens, UniProt Q9HBY8)
T7 construct: purchased DiscoveRx KINOMEscan

CDKL5 = molecular target: T8, CDKL5 (Homo sapiens, UniProt O76039)
T8 construct: purchased DiscoveRx KINOMEscan

DAPK1 = molecular target: T9, DAPK1 (Homo sapiens, UniProt P53355)
T9 construct: purchased DiscoveRx KINOMEscan

DMPK = molecular target: T10, DMPK (Homo sapiens, UniProt Q09013)
T10 construct: purchased DiscoveRx KINOMEscan
T10 sequence (Q09013 whole entry): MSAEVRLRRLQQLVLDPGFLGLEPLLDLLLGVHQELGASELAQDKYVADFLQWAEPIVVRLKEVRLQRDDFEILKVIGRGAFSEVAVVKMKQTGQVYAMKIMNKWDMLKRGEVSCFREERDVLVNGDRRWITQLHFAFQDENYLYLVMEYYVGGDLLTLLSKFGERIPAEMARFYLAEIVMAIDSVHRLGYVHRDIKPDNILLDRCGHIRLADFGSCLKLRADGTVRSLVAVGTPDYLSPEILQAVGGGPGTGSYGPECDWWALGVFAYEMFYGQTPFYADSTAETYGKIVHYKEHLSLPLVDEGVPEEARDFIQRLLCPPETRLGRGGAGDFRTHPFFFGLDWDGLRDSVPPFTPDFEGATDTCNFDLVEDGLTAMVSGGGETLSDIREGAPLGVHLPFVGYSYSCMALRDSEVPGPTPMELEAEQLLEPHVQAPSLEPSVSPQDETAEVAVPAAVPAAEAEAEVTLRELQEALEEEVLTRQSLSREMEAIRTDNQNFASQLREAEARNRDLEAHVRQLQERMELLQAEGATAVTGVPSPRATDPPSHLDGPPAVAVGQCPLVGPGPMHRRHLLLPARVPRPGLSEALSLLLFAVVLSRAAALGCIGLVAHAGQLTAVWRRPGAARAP

BTK = molecular target: T11, BTK (Homo sapiens, UniProt Q06187)
T11 construct: purchased DiscoveRx KINOMEscan

MEK5 = molecular target: T12, MEK5 (Homo sapiens, UniProt Q13163)
T12 construct: purchased DiscoveRx KINOMEscan
T12 sequence (Q13163 whole entry): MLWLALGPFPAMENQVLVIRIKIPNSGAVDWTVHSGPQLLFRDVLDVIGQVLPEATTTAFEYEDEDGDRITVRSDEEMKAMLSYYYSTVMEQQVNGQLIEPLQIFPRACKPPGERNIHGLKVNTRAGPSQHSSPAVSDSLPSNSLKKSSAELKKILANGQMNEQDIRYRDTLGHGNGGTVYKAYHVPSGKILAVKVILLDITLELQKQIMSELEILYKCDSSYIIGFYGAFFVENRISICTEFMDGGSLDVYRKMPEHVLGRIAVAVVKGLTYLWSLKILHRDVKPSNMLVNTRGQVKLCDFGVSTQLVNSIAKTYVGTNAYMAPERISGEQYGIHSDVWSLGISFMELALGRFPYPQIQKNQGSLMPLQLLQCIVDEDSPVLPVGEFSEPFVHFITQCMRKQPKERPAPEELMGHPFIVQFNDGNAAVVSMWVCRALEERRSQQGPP

FLT3-autoinhibited = molecular target: T13, FLT3-autoinhibited (Homo sapiens, UniProt P36888)
T13 construct: purchased DiscoveRx KINOMEscan

NEK5 = molecular target: T14, NEK5 (Homo sapiens, UniProt Q6P3R8)
T14 construct: purchased DiscoveRx KINOMEscan

LYN = molecular target: T15, LYN (Homo sapiens, UniProt P07948)
T15 construct: purchased DiscoveRx KINOMEscan

ACVR2A = molecular target: T16, ACVR2A (Homo sapiens, UniProt P27037)
T16 construct: purchased DiscoveRx KINOMEscan

EPHB3 = molecular target: T17, EPHB3 (Homo sapiens, UniProt P54753)
T17 construct: purchased DiscoveRx KINOMEscan
T17 sequence (P54753 34-998): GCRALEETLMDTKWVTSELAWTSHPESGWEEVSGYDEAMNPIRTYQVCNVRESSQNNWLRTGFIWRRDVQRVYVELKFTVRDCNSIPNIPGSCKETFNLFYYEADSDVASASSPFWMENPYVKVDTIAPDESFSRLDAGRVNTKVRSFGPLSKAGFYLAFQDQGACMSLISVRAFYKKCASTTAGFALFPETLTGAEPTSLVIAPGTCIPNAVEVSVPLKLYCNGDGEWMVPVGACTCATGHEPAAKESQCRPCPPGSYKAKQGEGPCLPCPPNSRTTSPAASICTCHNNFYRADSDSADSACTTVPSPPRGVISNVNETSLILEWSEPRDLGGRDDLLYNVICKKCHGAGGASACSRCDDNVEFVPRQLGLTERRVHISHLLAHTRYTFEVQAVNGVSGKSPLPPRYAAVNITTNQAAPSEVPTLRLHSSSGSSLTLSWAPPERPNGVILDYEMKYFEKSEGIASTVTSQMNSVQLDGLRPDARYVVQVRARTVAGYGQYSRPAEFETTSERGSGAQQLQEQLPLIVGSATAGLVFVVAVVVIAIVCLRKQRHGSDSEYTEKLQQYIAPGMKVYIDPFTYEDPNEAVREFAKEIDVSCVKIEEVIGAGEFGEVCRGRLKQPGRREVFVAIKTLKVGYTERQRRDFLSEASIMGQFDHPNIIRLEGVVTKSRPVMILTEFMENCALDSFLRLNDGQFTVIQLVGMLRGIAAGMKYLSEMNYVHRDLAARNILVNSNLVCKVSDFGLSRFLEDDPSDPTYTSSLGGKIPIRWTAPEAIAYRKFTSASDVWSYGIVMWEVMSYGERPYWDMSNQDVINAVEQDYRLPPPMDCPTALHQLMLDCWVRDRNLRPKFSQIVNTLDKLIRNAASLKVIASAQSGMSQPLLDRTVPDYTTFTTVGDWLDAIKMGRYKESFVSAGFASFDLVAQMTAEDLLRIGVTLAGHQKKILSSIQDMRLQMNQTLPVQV

FGFR4 = molecular target: T18, FGFR4 (Homo sapiens, UniProt P22455)
T18 construct: purchased DiscoveRx KINOMEscan

PHKG1 = molecular target: T19, PHKG1 (Homo sapiens, UniProt Q16816)
T19 construct: purchased DiscoveRx KINOMEscan

TESK1 = molecular target: T20, TESK1 (Homo sapiens, UniProt Q15569)
T20 construct: purchased DiscoveRx KINOMEscan

FGFR3(G697C) = molecular target: T21, FGFR3(G697C) (Homo sapiens, UniProt P22607, G697C)
T21 construct: purchased DiscoveRx KINOMEscan

FLT3(R834Q) = molecular target: T22, FLT3(R834Q) (Homo sapiens, UniProt P36888, R834Q)
T22 construct: purchased DiscoveRx KINOMEscan

YSK1 = molecular target: T23, YSK1 (Homo sapiens, UniProt O00506)
T23 construct: purchased DiscoveRx KINOMEscan

FLT1 = molecular target: T24, FLT1 (Homo sapiens, UniProt P17948)
T24 construct: purchased DiscoveRx KINOMEscan

LATS1 = molecular target: T25, LATS1 (Homo sapiens, UniProt O95835)
T25 construct: purchased DiscoveRx KINOMEscan
T25 sequence (O95835 whole entry): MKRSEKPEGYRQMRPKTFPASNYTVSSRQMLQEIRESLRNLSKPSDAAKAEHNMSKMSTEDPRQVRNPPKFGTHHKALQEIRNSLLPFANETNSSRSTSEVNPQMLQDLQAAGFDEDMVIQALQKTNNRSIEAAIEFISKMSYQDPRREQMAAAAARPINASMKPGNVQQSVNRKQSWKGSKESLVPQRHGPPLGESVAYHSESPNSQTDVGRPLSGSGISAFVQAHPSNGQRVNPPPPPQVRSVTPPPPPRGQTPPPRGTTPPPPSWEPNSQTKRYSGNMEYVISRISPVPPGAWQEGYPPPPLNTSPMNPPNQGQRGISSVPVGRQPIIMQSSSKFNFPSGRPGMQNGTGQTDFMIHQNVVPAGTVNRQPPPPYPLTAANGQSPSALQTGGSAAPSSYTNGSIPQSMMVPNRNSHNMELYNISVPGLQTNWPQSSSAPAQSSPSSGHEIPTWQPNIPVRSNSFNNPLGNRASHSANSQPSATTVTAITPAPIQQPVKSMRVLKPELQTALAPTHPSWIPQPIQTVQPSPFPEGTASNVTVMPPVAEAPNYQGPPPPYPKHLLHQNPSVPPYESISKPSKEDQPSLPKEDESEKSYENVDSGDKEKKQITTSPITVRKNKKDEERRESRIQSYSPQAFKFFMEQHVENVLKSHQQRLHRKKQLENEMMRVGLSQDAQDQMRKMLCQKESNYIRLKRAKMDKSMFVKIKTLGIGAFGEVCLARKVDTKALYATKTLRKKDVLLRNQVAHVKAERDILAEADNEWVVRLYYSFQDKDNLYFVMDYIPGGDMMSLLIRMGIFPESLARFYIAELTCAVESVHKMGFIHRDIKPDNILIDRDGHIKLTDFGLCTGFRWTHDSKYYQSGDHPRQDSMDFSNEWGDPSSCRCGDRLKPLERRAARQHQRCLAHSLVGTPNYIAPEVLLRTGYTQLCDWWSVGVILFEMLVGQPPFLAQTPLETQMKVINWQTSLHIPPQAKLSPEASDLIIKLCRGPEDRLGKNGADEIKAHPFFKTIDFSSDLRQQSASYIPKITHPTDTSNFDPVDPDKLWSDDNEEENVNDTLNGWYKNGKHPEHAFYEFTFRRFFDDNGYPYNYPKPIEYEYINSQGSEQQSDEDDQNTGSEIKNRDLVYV

EPHB6 = molecular target: T26, EPHB6 (Homo sapiens, UniProt O15197)
T26 construct: purchased DiscoveRx KINOMEscan

PIK3CB = molecular target: T27, PIK3CB (Homo sapiens, UniProt P42338)
T27 construct: purchased DiscoveRx KINOMEscan

AAK1 = molecular target: T28, AAK1 (Homo sapiens, UniProt Q2M2I8)
T28 construct: purchased DiscoveRx KINOMEscan

PKAC-beta = molecular target: T29, PKAC-beta (Homo sapiens, UniProt P22694)
T29 construct: purchased DiscoveRx KINOMEscan

QSK = molecular target: T30, QSK (Homo sapiens, UniProt Q9Y2K2)
T30 construct: purchased DiscoveRx KINOMEscan

NEK3 = molecular target: T31, NEK3 (Homo sapiens, UniProt P51956)
T31 construct: purchased DiscoveRx KINOMEscan
T31 sequence (P51956 whole entry): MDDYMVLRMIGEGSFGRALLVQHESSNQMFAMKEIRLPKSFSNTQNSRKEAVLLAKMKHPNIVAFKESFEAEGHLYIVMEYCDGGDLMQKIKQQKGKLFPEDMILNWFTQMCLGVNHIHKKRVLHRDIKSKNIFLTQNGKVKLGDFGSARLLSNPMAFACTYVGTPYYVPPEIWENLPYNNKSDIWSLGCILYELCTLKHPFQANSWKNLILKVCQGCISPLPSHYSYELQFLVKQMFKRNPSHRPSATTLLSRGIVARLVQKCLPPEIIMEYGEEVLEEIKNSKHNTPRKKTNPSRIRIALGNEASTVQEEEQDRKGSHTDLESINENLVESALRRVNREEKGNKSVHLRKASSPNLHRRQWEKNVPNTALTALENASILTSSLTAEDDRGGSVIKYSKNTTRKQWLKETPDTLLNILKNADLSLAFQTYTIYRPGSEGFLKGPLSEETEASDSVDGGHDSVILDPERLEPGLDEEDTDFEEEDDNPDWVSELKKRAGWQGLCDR

CSNK1A1L = molecular target: T32, CSNK1A1L (Homo sapiens, UniProt Q8N752)
T32 construct: purchased DiscoveRx KINOMEscan

[2] = molecular target: T33, EGFR(L747-S752del, P753S) (Homo sapiens, UniProt P00533, DEL747-752/P753S)
T33 construct: purchased DiscoveRx KINOMEscan

PKN1 = molecular target: T34, PKN1 (Homo sapiens, UniProt Q16512)
T34 construct: purchased DiscoveRx KINOMEscan

CDKL2 = molecular target: T35, CDKL2 (Homo sapiens, UniProt Q92772)
T35 construct: purchased DiscoveRx KINOMEscan

TAK1 = molecular target: T36, TAK1 (Homo sapiens, UniProt O43318)
T36 construct: purchased DiscoveRx KINOMEscan

CAMK4 = molecular target: T37, CAMK4 (Homo sapiens, UniProt Q16566)
T37 construct: purchased DiscoveRx KINOMEscan

ERK5 = molecular target: T38, ERK5 (Homo sapiens, UniProt Q13164)
T38 construct: purchased DiscoveRx KINOMEscan

PIP5K1C = molecular target: T39, PIP5K1C (Homo sapiens, UniProt O60331)
T39 construct: purchased DiscoveRx KINOMEscan

MRCKB = molecular target: T40, MRCKB (Homo sapiens, UniProt Q9Y5S2)
T40 construct: purchased DiscoveRx KINOMEscan

KIT(V559D) = molecular target: T41, KIT(V559D) (Homo sapiens, UniProt P10721, V559D)
T41 construct: purchased DiscoveRx KINOMEscan

MAPKAPK2 = molecular target: T42, MAPKAPK2 (Homo sapiens, UniProt P49137)
T42 construct: purchased DiscoveRx KINOMEscan

PRKCD = molecular target: T43, PRKCD (Homo sapiens, UniProt Q05655)
T43 construct: purchased DiscoveRx KINOMEscan

ACVR1B = molecular target: T44, ACVR1B (Homo sapiens, UniProt P36896)
T44 construct: purchased DiscoveRx KINOMEscan

Compound: Cc1nc(NC(=O)[C@@H](N)C(C)C)sc1-c1cnc(Cl)c(NS(=O)(=O)c2ccccc2)c1 [PI3KD-IN-015]
- KinomeScan ABL1(F317L)-nonphosphorylated [1]: 100
- KinomeScan BMPR1B (BMPR1B): 80
- KinomeScan SLK (SLK): 100
- KinomeScan NIM1 (NIM1): 100
- KinomeScan TRKA (TRKA): 96
- KinomeScan CHEK2 (CHEK2): 88
- KinomeScan SGK2 (SGK2): 81
- KinomeScan CDKL5 (CDKL5): 87
- KinomeScan DAPK1 (DAPK1): 98
- KinomeScan DMPK (DMPK): 83
- KinomeScan BTK (BTK): 81
- KinomeScan MEK5 (MEK5): 94
- KinomeScan FLT3-autoinhibited (FLT3-autoinhibited): 100
- KinomeScan NEK5 (NEK5): 100
- KinomeScan LYN (LYN): 100
- KinomeScan ACVR2A (ACVR2A): 100
- KinomeScan EPHB3 (EPHB3): 100
- KinomeScan FGFR4 (FGFR4): 93
- KinomeScan PHKG1 (PHKG1): 100
- KinomeScan TESK1 (TESK1): 100
- KinomeScan FGFR3(G697C) (FGFR3(G697C)): 100
- KinomeScan FLT3(R834Q) (FLT3(R834Q)): 84
- KinomeScan YSK1 (YSK1): 100
- KinomeScan FLT1 (FLT1): 89
- KinomeScan LATS1 (LATS1): 98
- KinomeScan EPHB6 (EPHB6): 100
- KinomeScan PIK3CB (PIK3CB): 0
- KinomeScan AAK1 (AAK1): 100
- KinomeScan PKAC-beta (PKAC-beta): 87
- KinomeScan QSK (QSK): 94
- KinomeScan NEK3 (NEK3): 100
- KinomeScan CSNK1A1L (CSNK1A1L): 100
- KinomeScan EGFR(L747-S752del, P753S) [2]: 100
- KinomeScan PKN1 (PKN1): 100
- KinomeScan CDKL2 (CDKL2): 100
- KinomeScan TAK1 (TAK1): 100
- KinomeScan CAMK4 (CAMK4): 89
- KinomeScan ERK5 (ERK5): 100
- KinomeScan PIP5K1C (PIP5K1C): 72
- KinomeScan MRCKB (MRCKB): 91
- KinomeScan KIT(V559D) (KIT(V559D)): 87
- KinomeScan MAPKAPK2 (MAPKAPK2): 95
- KinomeScan PRKCD (PRKCD): 100
- KinomeScan ACVR1B (ACVR1B): 85
